PubChem BioAssay AID256 (DTP/NCI, 2004)
“And” between values parts separate entries of the source, which are not always exact repeats. Identical values can stand only once. Inconclusive results and toxic doses are left out.

System: CD2F1 mice, L1210 leukemia ip, survival T/C
Assay: NCI In Vivo Anticancer Drug Screen. Data for tumor model L1210 Leukemia (intraperitoneal) in CD2F1 (CDF1) mice
Settings: higher = longer survival
Method in brief: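 Each value reflects a quotient of treated over vehicle control outcomes in mice with a transplanted tumor.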

[1] = endpoint: mean survival time, dose: 100.0 mg/kg/injection, schedule: Q04DX003 (ip), vehicle: saline with Tween-80
[2] = endpoint: mean survival time, dose: 200.0 mg/kg/injection, schedule: Q04DX003 (ip), vehicle: saline with Tween-80
[3] = endpoint: mean survival time, dose: 400.0 mg/kg/injection, schedule: Q04DX003 (ip), vehicle: saline with Tween-80
[4] = endpoint: mean survival time, dose: 100.0 mg/kg/injection, schedule: Q04DX003 (ip), vehicle: saline
[5] = endpoint: mean survival time, dose: 200.0 mg/kg/injection, schedule: Q04DX003 (ip), vehicle: saline
[6] = endpoint: mean survival time, dose: 400.0 mg/kg/injection, schedule: Q04DX003 (ip), vehicle: saline
[7] = endpoint: mean survival time, dose: 100.0 mg/kg/injection, schedule: Q01DX009 (ip), vehicle: saline with Tween-80
[8] = endpoint: mean survival time, dose: 200.0 mg/kg/injection, schedule: Q01DX009 (ip), vehicle: saline with Tween-80
[9] = endpoint: mean survival time, dose: 400.0 mg/kg/injection, schedule: Q01DX009 (ip), vehicle: saline with Tween-80

SMILES: COc1cccc2c1C(=O)c1c(O)c3c(c(O)c1C2=O)C[C@@](O)(/C(CO)=N/NC(=O)c1ccc(Cl)c(Cl)c1)C[C@@H]3OC1CC(N)C(O)C(C)O1 (stereo not given in full)
- T/C (endpoint: mean survival time, dose: 1.0 mg/kg/injection, schedule: Q01DX009 (ip), vehicle: water): 86 % of control
- T/C (endpoint: mean survival time, dose: 2.0 mg/kg/injection, schedule: Q01DX009 (ip), vehicle: water): 116 % of control and 89 % of control
- T/C (endpoint: mean survival time, dose: 4.0 mg/kg/injection, schedule: Q01DX009 (ip), vehicle: water): 92 % of control
- T/C (endpoint: mean survival time, dose: 8.0 mg/kg/injection, schedule: Q01DX009 (ip), vehicle: water): 92 % of control
- T/C (endpoint: mean survival time, dose: 16.0 mg/kg/injection, schedule: Q01DX009 (ip), vehicle: water): 252 % of control and 97 % of control
- T/C (endpoint: mean survival time, dose: 32.0 mg/kg/injection, schedule: Q01DX009 (ip), vehicle: water): 113 % of control and 111 % of control

SMILES: CC1OC(=O)c2ccccc2S1=O (stereo not given)
- T/C (endpoint: mean survival time, dose: 100.0 mg/kg/injection, schedule: Q01DX009 (ip), vehicle: saline sonified): 98 % of control
- T/C [1]: 98 % of control
- T/C (endpoint: mean survival time, dose: 200.0 mg/kg/injection, schedule: Q01DX009 (ip), vehicle: saline sonified): 97 % of control
- T/C [2]: 100 % of control
- T/C (endpoint: mean survival time, dose: 400.0 mg/kg/injection, schedule: Q01DX009 (ip), vehicle: saline sonified): 97 % of control
- T/C [3]: 104 % of control

SMILES: CCOc1ccc(Nc2ncnc3nc[nH]c23)cc1CN(CCCl)CCCl
- T/C (endpoint: mean survival time, dose: 2.0 mg/kg/injection, schedule: Q01DX009 (ip), vehicle: saline sonified): 116 % of control
- T/C (endpoint: mean survival time, dose: 4.0 mg/kg/injection, schedule: Q01DX009 (ip), vehicle: saline sonified): 117 % of control
- T/C (endpoint: mean survival time, dose: 8.0 mg/kg/injection, schedule: Q01DX009 (ip), vehicle: saline sonified): 116 % of control

SMILES: O=[P+](O)C(O)c1ccccc1 (stereo not given)
- T/C [4]: 108 % of control
- T/C [5]: 111 % of control
- T/C [6]: 117 % of control

SMILES: CC(C)c1ccc(C2CCCCC2O)cc1 (stereo not given)
- T/C [7]: 89 % of control
- T/C [1]: 105 % of control
- T/C [8]: 92 % of control
- T/C [2]: 91 % of control
- T/C [3]: 94 % of control

SMILES: CC(=O)COc1ccccc1NC(C)=O
- T/C [1]: 91 % of control
- T/C [2]: 102 % of control
- T/C [3]: 91 % of control

SMILES: CC(=O)OCC(O)C(O)C(O)C(O)CO (stereo not given)
- T/C [7]: 109 % of control
- T/C [8]: 94 % of control
- T/C [9]: 96 % of control

SMILES: NCC1CCNCC1
- T/C (endpoint: mean survival time, dose: 25.0 mg/kg/injection, schedule: Q04DX002 (ip), vehicle: saline): 94 % of control
- T/C (endpoint: mean survival time, dose: 50.0 mg/kg/injection, schedule: Q04DX002 (ip), vehicle: saline): 97 % of control
- T/C (endpoint: mean survival time, dose: 100.0 mg/kg/injection, schedule: Q04DX002 (ip), vehicle: saline): 91 % of control
- T/C (endpoint: mean survival time, dose: 200.0 mg/kg/injection, schedule: Q04DX002 (ip), vehicle: saline): 102 % of control

SMILES: ClCCOCC1CO1 (stereo not given)
- T/C (endpoint: mean survival time, dose: 150.0 mg/kg/injection, schedule: Q04DX003 (ip), vehicle: saline): 101 % of control
- T/C (endpoint: mean survival time, dose: 225.0 mg/kg/injection, schedule: Q04DX003 (ip), vehicle: saline): 104 % of control
- T/C (endpoint: mean survival time, dose: 335.0 mg/kg/injection, schedule: Q04DX003 (ip), vehicle: saline): 96 % of control

SMILES: COc1ccc(CCNC(=O)CCN2C(=O)CCC2=O)cc1OC
- T/C [7]: 98 % of control
- T/C (endpoint: mean survival time, dose: 100.0 mg/kg/injection, schedule: Q04DX003 (ip), vehicle: saline sonified): 101 % of control
- T/C [8]: 96 % of control
- T/C (endpoint: mean survival time, dose: 200.0 mg/kg/injection, schedule: Q04DX003 (ip), vehicle: saline sonified): 101 % of control
- T/C [9]: 100 % of control
- T/C (endpoint: mean survival time, dose: 400.0 mg/kg/injection, schedule: Q04DX003 (ip), vehicle: saline sonified): 98 % of control

SMILES: COC(=O)/C=C/C=C/C(=O)OC
- T/C [7]: 96 % of control
- T/C [1]: 103 % of control
- T/C [8]: 96 % of control
- T/C [2]: 112 % of control
- T/C [9]: 104 % of control
- T/C [3]: 103 % of control

SMILES: NC(=O)c1[nH]cnc1/N=N/N(CCCl)Cc1ccccc1
- T/C (endpoint: mean survival time, dose: 66.0 mg/kg/injection, schedule: Q01DX009 (ip), vehicle: Klucel (hydroxypropylcellulose) (HPC)): 180 % of control
- T/C (endpoint: mean survival time, dose: 100.0 mg/kg/injection, schedule: Q01DX009 (ip), vehicle: Klucel (hydroxypropylcellulose) (HPC)): 264 % of control
- T/C (endpoint: mean survival time, dose: 150.0 mg/kg/injection, schedule: Q01DX009 (ip), vehicle: Klucel (hydroxypropylcellulose) (HPC)): 264 % of control
- T/C (endpoint: mean survival time, dose: 200.0 mg/kg/injection, schedule: Q04DX003 (ip), vehicle: Klucel (hydroxypropylcellulose) (HPC)): 227 % of control
- T/C (endpoint: mean survival time, dose: 400.0 mg/kg/injection, schedule: Q04DX003 (ip), vehicle: Klucel (hydroxypropylcellulose) (HPC)): 268 % of control

SMILES: Nc1cc(=O)[nH]c(O)c1C(=O)O
- T/C (endpoint: mean survival time, dose: 50.0 mg/kg/injection, schedule: Q01DX009 (ip), vehicle: saline with Tween-80): 104 % of control
- T/C [7]: 96 % of control

SMILES: COC(=O)c1cn(C2OC(CO)C(O)C2O)c2ncnc(N)c12 (stereo not given)
- T/C (endpoint: mean survival time, dose: 3.12 mg/kg/injection, schedule: Q01DX009 (ip), vehicle: water): 104 % of control
- T/C (endpoint: mean survival time, dose: 6.25 mg/kg/injection, schedule: Q01DX009 (ip), vehicle: water): 112 % of control
- T/C (endpoint: mean survival time, dose: 12.5 mg/kg/injection, schedule: Q01DX009 (ip), vehicle: water): 122 % of control

SMILES: CC(C)(CO)Nc1ccc([N+](=O)[O-])cc1
- T/C (endpoint: mean survival time, dose: 100.0 mg/kg/injection, schedule: Q01DX001 (ip), vehicle: saline with Tween-80): 104 % of control
- T/C (endpoint: mean survival time, dose: 200.0 mg/kg/injection, schedule: Q01DX001 (ip), vehicle: saline with Tween-80): 106 % of control
- T/C (endpoint: mean survival time, dose: 400.0 mg/kg/injection, schedule: Q01DX001 (ip), vehicle: saline with Tween-80): 107 % of control

SMILES: Cc1cccc(=N)n1CCC(=O)O
- T/C (endpoint: mean survival time, dose: 100.0 mg/kg/injection, schedule: Q01DX009 (ip), vehicle: saline): 95 % of control
- T/C [4]: 112 % of control
- T/C (endpoint: mean survival time, dose: 200.0 mg/kg/injection, schedule: Q01DX009 (ip), vehicle: saline): 98 % of control
- T/C [5]: 94 % of control
- T/C (endpoint: mean survival time, dose: 400.0 mg/kg/injection, schedule: Q01DX009 (ip), vehicle: saline): 95 % of control
- T/C [6]: 96 % of control

SMILES: CN1CCc2c3n(c4ccccc24)C(=O)CCC31 (stereo not given)
- T/C (endpoint: mean survival time, dose: 6.25 mg/kg/injection, schedule: Q04DX003 (ip), vehicle: saline sonified): 101 % of control
- T/C (endpoint: mean survival time, dose: 12.5 mg/kg/injection, schedule: Q04DX003 (ip), vehicle: saline sonified): 90 % of control
- T/C (endpoint: mean survival time, dose: 25.0 mg/kg/injection, schedule: Q04DX003 (ip), vehicle: saline sonified): 97 % of control

SMILES: Nc1cc2c(c[n+](CCCBr)c3ccccc23)c2ccccc12
- T/C (endpoint: mean survival time, dose: 3.13 mg/kg/injection, schedule: Q04DX003 (ip), vehicle: other): 111 % of control
- T/C (endpoint: mean survival time, dose: 6.25 mg/kg/injection, schedule: Q04DX003 (ip), vehicle: other): 122 % of control
- T/C (endpoint: mean survival time, dose: 12.5 mg/kg/injection, schedule: Q04DX003 (ip), vehicle: other): 120 % of control
- T/C (endpoint: mean survival time, dose: 25.0 mg/kg/injection, schedule: Q04DX003 (ip), vehicle: other): 109 % of control
- T/C (endpoint: mean survival time, dose: 50.0 mg/kg/injection, schedule: Q04DX003 (ip), vehicle: other): 87 % of control

SMILES: CCCCNCCC(=O)c1ccc(Cl)cc1
- T/C (endpoint: mean survival time, dose: 25.0 mg/kg/injection, schedule: Q04DX003 (ip), vehicle: saline with Tween-80): 98 % of control
- T/C (endpoint: mean survival time, dose: 50.0 mg/kg/injection, schedule: Q04DX003 (ip), vehicle: saline with Tween-80): 98 % of control

SMILES: CN(C)S(=O)(=O)Oc1cccc([N+](=O)[O-])c1
- T/C [1]: 96 % of control

SMILES: CNC(=S)/N=c1/scc(C)n1C
- T/C (endpoint: mean survival time, dose: 100.0 mg/kg/injection, schedule: Q04DX002 (ip), vehicle: saline with Tween-80): 91 % of control
- T/C (endpoint: mean survival time, dose: 200.0 mg/kg/injection, schedule: Q04DX002 (ip), vehicle: saline with Tween-80): 91 % of control
- T/C (endpoint: mean survival time, dose: 400.0 mg/kg/injection, schedule: Q04DX002 (ip), vehicle: saline with Tween-80): 111 % of control

SMILES: Cc1cc2c(C(C)C)c(O)c(O)c(C=NCCO)c2c(O)c1-c1c(C)cc2c(C(C)C)c(O)c(O)c(C=NCCO)c2c1O
- T/C (endpoint: median survival time, dose: 25.0 mg/kg/injection, schedule: Q01DX009 (ip), vehicle: saline with Tween-80): 105 % of control
- T/C (endpoint: median survival time, dose: 50.0 mg/kg/injection, schedule: Q01DX009 (ip), vehicle: saline with Tween-80): 97 % of control
- T/C (endpoint: median survival time, dose: 100.0 mg/kg/injection, schedule: Q01DX009 (ip), vehicle: saline with Tween-80): 101 % of control
- T/C (endpoint: median survival time, dose: 200.0 mg/kg/injection, schedule: Q01DX009 (ip), vehicle: saline with Tween-80): 104 % of control
- T/C (endpoint: median survival time, dose: 400.0 mg/kg/injection, schedule: Q01DX009 (ip), vehicle: saline with Tween-80): 89 % of control

SMILES: Nc1ccn(C2CC3[O][Sn]([c]4ccccc4)([c]4ccccc4)[O]CC3O2)c(=O)n1 (stereo not given)
- T/C (endpoint: mean survival time, dose: 6.25 mg/kg/injection, schedule: Q01DX005 (ip), vehicle: distilled water + Tween-80): 103 % of control
- T/C (endpoint: mean survival time, dose: 12.5 mg/kg/injection, schedule: Q01DX005 (ip), vehicle: distilled water + Tween-80): 93 % of control
- T/C (endpoint: mean survival time, dose: 25.0 mg/kg/injection, schedule: Q01DX005 (ip), vehicle: distilled water + Tween-80): 93 % of control
- T/C (endpoint: mean survival time, dose: 50.0 mg/kg/injection, schedule: Q01DX005 (ip), vehicle: distilled water + Tween-80): 88 % of control
